Measurements published in patent publication US10851089B2, “Matrix metalloproteinase (MMP) inhibitors and methods of use thereof” (Foresee Pharmaceuticals Co., Ltd., priority 2018, dated 2020).

System: UUO-induced renal fibrosis
Assay: SD rat kidney fibrosis model by unilateral ureteral occlusion (UUO)
Assay type: in vivo, Sprague Dawley rat
Procedure: This study was to evaluate the therapeutic efficacy of the MMP-12 inhibitor FC-4 on a renal fibrosis model by unilateral ureteral occlusion (UUO). Male Sprague Dawley (SD) rats (180-220 g, n=71) were used in this study. Animals were randomly divided into 4 groups: vehicle group (group-1, n=8), FC-4 2 mg/kg/day group (group-2, n=9), FC-4 6 mg/kg/day group (group-3, n=9), FC-4 20 mg/kg/day group (group-4, n=9). Animals were anesthetized with 2.5% isoflurane inhalation. The left ureter was ligated to create a unilateral ureteral occlusion (UUO) model to induce renal fibrosis. The test article FC-4 was administrated twice a day via oral delivery after modeling for 14 days. Peripheral blood serum was prepared at pre-modeling and day-15 (one day after last dosing). All animals were euthanized and processed for left kidney pathology studies.
Animals: Gender: Male, SD rats, 180-220 g, total 71. Certificate: 11400700272659, Beijing Vital River Laboratory Animal Technology Co., Ltd., China. Animal holding: Animals were maintained in a temperature-controlled environment with a 12 hours light/12 hours dark cycle and free access to food and water. Experimental procedures were performed according to IACUC guidelines in the KCI (SuZhou) Biotech Inc. (KCI) animal research facility. Model creation: Total 36 male SD rats were used in this study. After anesthesia with 2.5% isoflurane inhalation the animal abdomen was opened surgically. The left ureter was exposed and ligated close to the bladder to create the UUO model. After confirming no bleeding, the abdomen wall was closed in layers. The animals were maintained under temperature controlled pad (37° C.) for the recovery from anesthesia, and then were transferred to holding cages with regular food and water.
Experiment grouping: UUO modeling animals were divided into 4 groups randomly as vehicle (group-1, n=9), FC-4 2 mg/kg/day (group-2, n=9), FC-4 6 mg/kg/day (group-3, n=9), FC-4 20 mg/kg/day (group-4, n=9) (Table 4.1). Dosing regimen: All test articles were designed as an oral administration via a gastric perfusion. Test articles were designed to be delivered twice a day starting on the same day of modeling for 14 days (Table 4.1). Endpoints: 1) Blood collection: Peripheral blood was collected from all animals in each group and prepared for serum at pre-modeling and day-15 (one day after last dosing), stored at −80° C. All animals were euthanized according to KCI SOP. After confirming animal death without breath and heart beat, the left kidneys were perfused with cold PBS followed by 10% neutral formalin and collected for further pathology study. 2) Detection of serum BUN and creatinine: The serum BUN and creatinine level were detected with Hitachi 7060 automatic biochemical analyzer and related test kits. 3) Kidney pathology examination: 3a) Kidney H&E staining and analysis: Following KCI's pathologic SOP all left kidneys were fixed in 10% formalin for at least 24 h at room temperature. After fixation, the kidney was cut longitudinally to get the largest surface and dehydrated in graded ethanol, cleared in xylene, and embedded in paraffin. Thin sections (3-μm) were mounted on glass slides, dewaxed, rehydrated to distilled water, and stained with hematoxylin and eosin (H&E). All stained slides were scanned with NanoZoomer Digital Pathology (S210, Hamamaci, Japan) scanner. Semi quantitative evaluation of the degree of tubular epithelial flattening and dilatation were graded from 0-5 according to the percentage of tubular involvement: score 0=no damage; score 1=1-10% damage; score 2=10-25% damage; score 3=25-50% damage; score 4=50-75% damage; score 5=75-100% damage. Semi quantitative evaluation of the tubular necrosis is graded from 0 to 3 according to the percentage of tubular involvement: score 0=no necrosis; score 1=<25% necrosis; score 2=25-50% necrosis; score 3=>50% necrosis. The average of tubular flattening and dilatation and necrosis as the total tubular damage was presented. […]

## Cc1cc(COc2ccc(Sc3ccoc3C3NC(=O)NC3=O)cc2)ccn1 (stereo not shown) [FC-4]
6 mg/kg/day, p<0.05
  Collagen-IV deposition in cortex of left kidney (IHC): significant reduction
20 mg/kg/day
  Collagen-I deposition in cortex of left kidney (IHC): significant reduction
20 mg/kg/day p.o. bid, day-15, not statistically significant vs model
  Serum BUN elevation: slightly limit the BUN elevation
20 mg/kg/day, p<0.001
  Collagen-IV deposition in cortex of left kidney (IHC): significant reduction
  Interstitial fibrosis score in cortex: significant reduction
2, 6, 20 mg/kg/day, 20 more effective than 2 mg/kg/day (p<0.01)
  Left kidney tubular damage score: clear dose dependent effect
Dose dependent efficacy
  Interstitial inflammation in cortex (semi quantitative): significant reduction
